Broadly, the MIC is the smallest concentration in the dilution series that meets the test's criterion for growth inhibition.

The test system of one assay is Staphylococcus aureus. Put plainly: Antibacterial activity against Staphylococcus aureus ATCC 10832. Type of assay: functional.
Another assay has as its system Pseudomonas aeruginosa. Put plainly: Antibacterial activity against Pseudomonas aeruginosa ATCC 14210. Type of assay: functional.

Regarding `CC(C)CCCCCCCC(=O)N[C@@H](CC(N)=O)C(=O)O` [LIPOAMIDE A], the MIC against Staphylococcus aureus and against Pseudomonas aeruginosa was above 100 µg/mL in each case.
As for `CC(C)CCCCCCCCC(=O)N[C@@H](CC(N)=O)C(=O)O` [LIPOAMIDE B], the MIC with Staphylococcus aureus and against Pseudomonas aeruginosa was above 100 µg/mL throughout.
As to `CC(C)CCCCCCCCCC(=O)N[C@@H](CC(N)=O)C(=O)O` [LIPOAMIDE C], the minimum inhibitory concentration (MIC) with Staphylococcus aureus and in the assay with Pseudomonas aeruginosa was above 100 µg/mL throughout.

The values above are taken from ChEMBL document CHEMBL1772989, “Non-peptide metabolites from the genus Bacillus” (J Nat Prod, 2011).
